# Reference: BindingDB's records for doi:10.1021/jm7010194 (Abbott Laboratories, 2007)
# Biological target: T1, ATP-sensitive inward rectifier potassium channel 11 (Homo sapiens, UniProt Q14654)
# T1 sequence (Q14654 whole entry): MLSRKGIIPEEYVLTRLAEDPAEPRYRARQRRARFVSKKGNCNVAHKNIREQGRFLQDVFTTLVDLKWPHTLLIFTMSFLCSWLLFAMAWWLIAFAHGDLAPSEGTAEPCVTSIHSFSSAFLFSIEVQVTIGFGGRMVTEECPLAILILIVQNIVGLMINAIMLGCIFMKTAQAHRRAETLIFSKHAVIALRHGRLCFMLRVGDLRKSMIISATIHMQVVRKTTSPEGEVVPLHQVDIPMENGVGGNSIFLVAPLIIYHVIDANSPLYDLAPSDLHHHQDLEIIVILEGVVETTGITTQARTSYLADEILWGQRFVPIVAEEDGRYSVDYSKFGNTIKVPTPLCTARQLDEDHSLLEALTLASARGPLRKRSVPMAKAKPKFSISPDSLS
# Test: Channel opening activity at human bladder Kir6.2 channel containing SUR2B expressed in L cells by FLIPR assay
row,EC50,SMILES
1,5370 nM,CC(Cl)(Cl)C(NC(=O)c1cccc(F)c1)N/C(=N/C#N)Nc1ccc(Cl)nc1 (stereo unspecified)
2,9770 nM,COc1ncccc1NC(=NC#N)NC(NC(=O)c1ccc(Cl)cc1)C(C)(Cl)Cl (stereo unspecified)
3,4270 nM,Cc1ccc(C(=O)NC(N/C(=N/C#N)Nc2ccc(F)nc2)C(C)(Cl)Cl)cc1 (stereo unspecified)
4,1510 nM,CC(Cl)(Cl)C(NC(=O)c1ccc(Cl)cc1)N/C(=N/C#N)Nc1ccc(F)nc1 (stereo unspecified)
5,4270 nM,Cc1cccc(C(=O)NC(N/C(=N/C#N)Nc2ccc(F)nc2)C(C)(Cl)Cl)c1 (stereo unspecified)
6,> 100000 nM,CC(Cl)(Cl)C(NC(=O)c1ccc(Br)cc1)N/C(=N/C#N)Nc1ccc(C(F)(F)F)nc1 (stereo unspecified)
7,759 nM,Cc1cncc(N/C(=N\C#N)NC(NC(=O)c2ccc(Cl)cc2)C(C)(Cl)Cl)c1 (stereo unspecified)
8,5010 nM,CC(Cl)(Cl)C(NC(=O)c1ccc(C(F)(F)F)cc1)N/C(=N/C#N)Nc1ccc(Cl)nc1 (stereo unspecified)
9,1700 nM,Cc1cccc(C(=O)NC(N/C(=N/C#N)Nc2ccc(Cl)nc2)C(C)(Cl)Cl)c1 (stereo unspecified)
10,813 nM,CC(Cl)(Cl)C(NC(=O)c1cc(Cl)cc(Cl)c1)N/C(=N/C#N)Nc1ccc(Cl)nc1 (stereo unspecified)
11,537 nM,CC(Cl)(Cl)C(NC(=O)c1ccc(Br)cc1)N/C(=N/C#N)Nc1ccc(Cl)nc1 (stereo unspecified)
12,11700 nM,CC(Cl)(Cl)C(NC(=O)c1ccc(F)cc1)N/C(=N/C#N)Nc1ccc(F)nc1 (stereo unspecified)
13,912 nM,Cc1ccc(C(=O)NC(N/C(=N/C#N)Nc2ccc(Cl)nc2)C(C)(Cl)Cl)cc1 (stereo unspecified)
14,1180 nM,CC(Cl)(Cl)C(NC(=O)c1cc(F)cc(F)c1)N/C(=N/C#N)Nc1ccc(C(F)(F)F)nc1 (stereo unspecified)
15,1290 nM,CC(Cl)(Cl)C(NC(=O)c1ccc(F)cc1)N/C(=N/C#N)Nc1ccc(Cl)nc1 (stereo unspecified)
16,2040 nM,CC(Cl)(Cl)C(NC(=O)c1ccccc1)N/C(=N/C#N)Nc1ccc(Cl)nc1 (stereo unspecified)
17,1100 nM,CC(Cl)(Cl)C(NC(=O)c1cc(F)cc(F)c1)N/C(=N/C#N)Nc1cncc(Br)c1 (stereo unspecified)
18,646 nM,CC(Cl)(Cl)C(NC(=O)c1ccc(Cl)cc1)N/C(=N/C#N)Nc1cncc(Br)c1 (stereo unspecified)
19,4570 nM,CC(Cl)(Cl)C(NC(=O)c1cccs1)N/C(=N/C#N)Nc1ccc(F)nc1 (stereo unspecified)

row,EC50,SMILES
1,6760 nM,CC(Cl)(Cl)C(NC(=O)c1cccc(Cl)c1)N/C(=N/C#N)Nc1ccc(C(F)(F)F)nc1 (stereo unspecified)
2,6030 nM,CC(Cl)(Cl)C(NC(=O)c1ccc(Cl)cc1)NC(=NC#N)Nc1cccnc1Cl (stereo unspecified)
3,2090 nM,CC(Cl)(Cl)C(NC(=O)c1ccc(F)cc1)N/C(=N/C#N)Nc1ccc(C(F)(F)F)nc1 (stereo unspecified)
4,> 100000 nM,CC(Cl)(Cl)C(NC(=O)c1ccc(OC(F)(F)F)cc1)N/C(=N/C#N)Nc1cncc(Br)c1 (stereo unspecified)
5,955 nM,CC(Cl)(Cl)C(NC(=O)c1ccc(F)cc1)N/C(=N/C#N)Nc1cncc(Br)c1 (stereo unspecified)
6,457 nM,CC(Cl)(Cl)C(NC(=O)c1ccc(Cl)cc1)N/C(=N/C#N)Nc1ccc(Cl)nc1 (stereo unspecified)
7,8910 nM,COc1cc(OC)cc(C(=O)NC(N/C(=N/C#N)Nc2ccc(Cl)nc2)C(C)(Cl)Cl)c1 (stereo unspecified)
8,2290 nM,CC(Cl)(Cl)C(NC(=O)c1cccc(Cl)c1)N/C(=N/C#N)Nc1ccc(F)nc1 (stereo unspecified)
9,10500 nM,COc1ccc(N/C(=N\C#N)NC(NC(=O)c2ccc(Cl)cc2)C(C)(Cl)Cl)cn1 (stereo unspecified)
10,9550 nM,Cc1nc(C(F)(F)F)ccc1N/C(=N\C#N)NC(NC(=O)c1ccc(Cl)cc1)C(C)(Cl)Cl (stereo unspecified)
11,2290 nM,CC(Cl)(Cl)C(NC(=O)c1cccc(F)c1)N/C(=N/C#N)Nc1ccc(C(F)(F)F)nc1 (stereo unspecified)
12,5370 nM,CC(Cl)(Cl)C(NC(=O)c1ccc(OC(F)(F)F)cc1)N/C(=N/C#N)Nc1ccc(Cl)nc1 (stereo unspecified)
13,2570 nM,Cc1cccc(C(=O)NC(N/C(=N/C#N)Nc2ccc(C(F)(F)F)nc2)C(C)(Cl)Cl)c1 (stereo unspecified)
14,1070 nM,CC(Cl)(Cl)[C@@H](NC(=O)c1ccc(Cl)cc1)N/C(=N/C#N)Nc1ccc(Cl)nc1
15,1660 nM,CC(Cl)(Cl)C(NC(=O)c1cccc(Cl)c1)N/C(=N/C#N)Nc1ccc(Cl)nc1 (stereo unspecified)
16,6610 nM,COc1cnccc1C(=O)NC(N/C(=N/C#N)Nc1ccc(Cl)nc1)C(C)(Cl)Cl (stereo unspecified)
17,12000 nM,CC(Cl)(Cl)C(NC(=O)c1ccc(Cl)cc1)N/C(=N/C#N)Nc1ccccc1F (stereo unspecified)
18,1740 nM,CC(Cl)(Cl)C(NC(=O)c1cccs1)N/C(=N/C#N)Nc1ccc(C(F)(F)F)nc1 (stereo unspecified)
19,3720 nM,CC(Cl)(Cl)C(NC(=O)c1cc(Cl)cc(Cl)c1)N/C(=N/C#N)Nc1ccc(C(F)(F)F)nc1 (stereo unspecified)

row,EC50,SMILES
1,7760 nM,CC(Cl)(Cl)C(NC(=O)c1ccc(I)cc1)N/C(=N/C#N)Nc1ccc(C(F)(F)F)nc1 (stereo unspecified)
2,2040 nM,CC(Cl)(Cl)C(NC(=O)c1cc(Cl)cc(Cl)c1)N/C(=N/C#N)Nc1ccc(F)nc1 (stereo unspecified)
3,1290 nM,CC(Cl)(Cl)C(NC(=O)c1cccs1)N/C(=N/C#N)Nc1cncc(Br)c1 (stereo unspecified)
4,1620 nM,CC(Cl)(Cl)C(NC(=O)c1ccc(Cl)cc1)N/C(=N/C#N)Nc1ccc(C(F)(F)F)nc1 (stereo unspecified)
5,1660 nM,Cc1cccc(C(=O)NC(N/C(=N/C#N)Nc2cncc(Br)c2)C(C)(Cl)Cl)c1 (stereo unspecified)
6,2630 nM,CC(Cl)(Cl)C(NC(=O)c1cc(Cl)cc(Cl)c1)N/C(=N/C#N)Nc1cncc(Br)c1 (stereo unspecified)
7,26900 nM,CC(Cl)(Cl)C(NC(=O)c1ccc(C(F)(F)F)cc1)N/C(=N/C#N)Nc1ccc(C(F)(F)F)nc1 (stereo unspecified)
8,1100 nM,CC(Cl)(Cl)C(NC(=O)c1cc(F)cc(F)c1)N/C(=N/C#N)Nc1ccc(Cl)nc1 (stereo unspecified)
9,776 nM,CC(Cl)(Cl)C(NC(=O)c1cccc(Cl)c1)N/C(=N/C#N)Nc1cncc(Br)c1 (stereo unspecified)
10,2750 nM,CC(Cl)(Cl)C(NC(=O)c1cccs1)N/C(=N/C#N)Nc1ccc(Cl)nc1 (stereo unspecified)
11,2240 nM,Cc1ccc(N/C(=N\C#N)NC(NC(=O)c2ccc(Cl)cc2)C(C)(Cl)Cl)cn1 (stereo unspecified)
12,2140 nM,CC(Cl)(Cl)[C@H](NC(=O)c1ccc(Cl)cc1)N/C(=N/C#N)Nc1ccc(Cl)nc1
13,4270 nM,CC(Cl)(Cl)C(NC(=O)c1cc(F)cc(F)c1)N/C(=N/C#N)Nc1ccc(F)nc1 (stereo unspecified)
14,339 nM,CC(Cl)(Cl)[C@@H](NC(=O)c1ccc(Cl)cc1)N/C(=N/C#N)Nc1cccnc1
15,3800 nM,Cc1ccc(C(=O)NC(N/C(=N/C#N)Nc2ccc(C(F)(F)F)nc2)C(C)(Cl)Cl)cc1 (stereo unspecified)
16,891 nM,CC(Cl)(Cl)C(NC(=O)c1ccc(I)cc1)N/C(=N/C#N)Nc1ccc(Cl)nc1 (stereo unspecified)
17,1320 nM,Cc1ccc(C(=O)NC(N/C(=N/C#N)Nc2cncc(Br)c2)C(C)(Cl)Cl)cc1 (stereo unspecified)
18,8910 nM,CC(Cl)(Cl)C(NC(=O)c1ccc(OC(F)(F)F)cc1)N/C(=N/C#N)Nc1ccc(F)nc1 (stereo unspecified)
